Reference: patent US12403192B2, “Nanoemulsion compositions for preventing, suppressing or eliminating allergic and inflammatory disease” (priority 2014, dated 2025)

Tested on: virus
Test: Virus inactivation by BCTP components
Conditions: concentrations equivalent to 11% BCTP
Excerpt: Individual components of nanoemulsions (e.g. in an immunogenic composition of the present invention) can function both to inactivate a pathogen as well as to contribute to the non-toxicity of the emulsions. […] Adding the oil phase to the detergent and solvent markedly reduces the toxicity of these agents in tissue culture at the same concentrations. […] Furthermore, when all the components of BCTP are combined in one composition but are not in a nanoemulsion structure, the mixture is not as effective at inactivating a pathogen as when the components are in a nanoemulsion structure.

## TRITON-X100
  ability to inactivate a virus: less ability
